Assay [1] deals with ENR+CD organoids. To be noted: primary screen; for Z.CTG: standard z score.
Assay [2] concerns ENR+CD organoids (ISC to Paneth cell differentiation). The experiment in a line: Primary screen: CCh-stimulated lysozyme secretion LYZ.S, 2.5-D 384-well ENR+CD organoid differentiation. The class given is cell-based, mouse. To be noted: primary screen. From the text:
(§1) High-throughput screening.

Assay [3] shares this test system. Put plainly: Primary screen: basal (non-stimulated) lysozyme secretion LYZ.NS, 2.5-D 384-well ENR+CD organoid differentiation. The class given is cell-based, mouse.
Excerpt: as §1

For assay [4] the test system is unchanged. Put plainly: Secondary (validation) screen: LYZ.S CCh-stimulated lysozyme secretion, 2.5-D 384-well ENR+CD organoids. To be noted: 6-day ENR+CD, vs ENR+CD+DMSO. Format: cell-based, mouse.
Assay [5] relates to ENR+CD organoids. The experiment in a line: Secondary (validation) screen: ATP (CTG) assay, 2.5-D 384-well ENR+CD organoids. Format: cell-based, mouse. To be noted: 6-day ENR+CD, vs ENR+CD+DMSO.
The subject of assay [6] is ENR+CD organoids (ISC to Paneth cell differentiation). The experiment in a line: Secondary (validation) screen: LYZ.NS basal lysozyme secretion, 2.5-D 384-well ENR+CD organoids. The class given is cell-based, mouse. To be noted: 6-day ENR+CD, vs ENR+CD+DMSO.
Assay [7] concerns ENR+CD organoids. Put plainly: Primary screen: ATP (CellTiter-Glo 3D, CTG) cell number/viability, 2.5-D 384-well ENR+CD organoids.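 Note: compounds given at plating and again on day 3 over a 6-day differentiation from ENR+CV stem-cell-enriched precursors, ATP measured on day 6, plate median as control.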 To be noted: primary screen, FC relative to plate median. A general note: In ATP-based viability assays light output follows the ATP content of the culture.

Each structure is given as a SMILES string. Read-outs that look alike come from different tables or passages of the source.

With `C=C1C[C@@H]2[C@H](CC[C@]3(C)C(=O)CC[C@@H]23)[C@@]2(C)C=CC(=O)C=C12` [Exemestane], the Dose.FC.CTG in the assay on ENR+CD organoids [1] (dose 0.08 uM) was −0.046 log2 fold change; with ENR+CD organoids [1] (dose 0.40 uM), −0.407 log2 fold change; with ENR+CD organoids [1] (dose 2.00 uM) it was 0.170 log2 fold change; in the assay on ENR+CD organoids [1] (dose 10.00 uM), −0.167 log2 fold change. The Z.CTG with ENR+CD organoids [1] (dose 0.08 uM) is −0.110; in the assay on ENR+CD organoids [1] (dose 0.40 uM) it was −0.973; with ENR+CD organoids [1] (dose 2.00 uM), 0.405; in the assay on ENR+CD organoids [1] (dose 10.00 uM) it was −0.398. The Dose.FC.LYZ.S is given as 0.062 log2 fold change in assay [2] (dose 0.08 uM), 0.035 log2 fold change in assay [2] (dose 0.40 uM), 0.058 log2 fold change in assay [2] (dose 2.00 uM) and −0.005 log2 fold change in assay [2] (dose 10.00 uM). For the same compound, the Dose.FC.LYZ.NS in assay [3] (primary screen, dose 0.08 uM) was 0.051 log2 fold change; in assay [3] (primary screen, dose 0.40 uM), 0.079 log2 fold change; in assay [3] (primary screen, dose 2.00 uM), 0.001 log2 fold change; in assay [3] (primary screen, dose 10.00 uM), 0.007 log2 fold change. Further, the Z.LYZ.NS is recorded as 0.447 in assay [3] (primary screen, standard z score, dose 0.08 uM); 0.687 in assay [3] (primary screen, standard z score, dose 0.40 uM); 0.012 in assay [3] (primary screen, standard z score, dose 2.00 uM); 0.060 in assay [3] (primary screen, standard z score, dose 10.00 uM).

For `N#CC[C@H](C1CCCC1)n1cc(-c2ncnc3[nH]ccc23)cn1` [Ruxolitinib (INCB018424), Ruxolitinib, reference compound], the Dose.FC.LYZ.S was −0.182 log2 fold change in assay [4] (2.50 uM); −0.217 log2 fold change in assay [4] (5.00 uM); −0.168 log2 fold change in assay [4] (10.00 uM); 0.027 log2 fold change in assay [4] (20.00 uM); 0.150 log2 fold change in assay [2] (dose 0.08 uM, FC relative to plate median); 0.067 log2 fold change in assay [2] (dose 0.40 uM, FC relative to plate median). Further, the Dose.FC.LYZ.S in assay [2] (dose 2.00 uM, FC relative to plate median) is reported as 0.105 log2 fold change; in assay [2] (dose 10.00 uM, FC relative to plate median), 0.317 log2 fold change. The Dose.FC.CTG in the assay on ENR+CD organoids [5] (2.50 uM) was −0.014 log2 fold change; with ENR+CD organoids [5] (5.00 uM) it was −0.224 log2 fold change; with ENR+CD organoids [5] (10.00 uM) it was −0.153 log2 fold change; in the assay with ENR+CD organoids [5] (20.00 uM), 0.166 log2 fold change; in the assay with ENR+CD organoids [7] (dose 0.08 uM), 0.458 log2 fold change; with ENR+CD organoids [7] (dose 0.40 uM), 0.363 log2 fold change. Besides, the Dose.FC.CTG worked out at 0.445 log2 fold change with ENR+CD organoids [7] (dose 2.00 uM) and 0.477 log2 fold change with ENR+CD organoids [7] (dose 10.00 uM). Further, the Dose.FC.LYZ.NS in assay [6] (2.50 uM) was −0.157 log2 fold change; in assay [6] (5.00 uM) it was −0.138 log2 fold change; in assay [6] (10.00 uM), −0.084 log2 fold change; in assay [6] (20.00 uM), 0.065 log2 fold change; in assay [3] (primary screen, dose 0.08 uM, FC relative to plate median) it was 0.122 log2 fold change; in assay [3] (primary screen, dose 0.40 uM, FC relative to plate median), 0.070 log2 fold change. Also, the Dose.FC.LYZ.NS stood at 0.110 log2 fold change in assay [3] (primary screen, dose 2.00 uM, FC relative to plate median) and 0.295 log2 fold change in assay [3] (primary screen, dose 10.00 uM, FC relative to plate median). For the same compound, the Z.LYZ.NS is 1.066 in assay [3] (primary screen, dose 0.08 uM, standard z score); 0.611 in assay [3] (primary screen, dose 0.40 uM, standard z score); 0.954 in assay [3] (primary screen, dose 2.00 uM, standard z score); 2.569 in assay [3] (primary screen, dose 10.00 uM, standard z score).
